{"source": "patent US20190014776A1", "about": "(priority 2017, published 2019)", "assay_type": "physicochemical", "conditions": "relative to tank mix of CLARITY and CONTROLMAX; dicamba 1.2 wt. % a.e., glyphosate 2.4 wt. % a.e.; 35° C., 40% RH, 24 hours", "description": "The dicamba volatility from each composition was measured by the procedure described in “A Method to Determine the Relative Volatility of Auxin Herbicide Formulations” in ASTM publication STP1587 entitled “Pesticide Formulation and Delivery Systems: 35th Volume, Pesticide Formulations, Adjuvants, and Spray Characterization in 2014, published 2016, which is incorporated herein by reference.\nHumidomes obtained from Hummert International (Part Nos 14-3850-2 for humidomes and 11-3050-1 for 1020 flat tray) were modified by cutting a 2.2 cm diameter hole on one end approximately 5 cm from the top to allow for insertion of a glass air sampling tube (22 mm OD) containing a polyurethane foam (PUF) filter. The sampling tube was secured with a VITON o-ring on each side of the humidome wall. The air sampling tube external to the humidome was fitted with tubing that was connected to a vacuum manifold immediately prior to sampling.\nThe flat tray beneath the humidome was filled with 1 liter of sifted dry or wet 50/50 soil (50% Redi-Earth and 50% US 10 Field Soil) to a depth of about 1 cm. […]\nThe flat tray bottom containing the auxin herbicide formulation on soil was covered with the humidome lid and the lid was secured with clamps. […] The PUF filter was extracted with 20 mL of methanol and the solution was analyzed for the auxin herbicide concentration using LC-MS methods known in the art."}
{"smiles": "CCCC[N+](CCCC)(CCCC)CCCC.COc1c(Cl)ccc(Cl)c1C(=O)[O-]", "note": "[TBA Dicamba, tetrabutylammonium (TBA) dicamba]", "values": [{"measurement": "Volatility Reduction", "result": 99.5, "unit": "%"}]}
